Measurements taken from US20220228111A1, “NOCICEPTOR DIFFERENTIATION FROM HUMAN PLURIPOTENT STEM CELLS” (priority 2019, published 2022).
pIC50: −log10 of the molar value. Entries after “also recorded” stand apart in the source; their conditions may differ.

Columns and labels:
[1] = test system: iPSC-derived nociceptor-like cells; assay: Multi-electrode array: sensitization of nociceptor-like cells with temperature stimulation; type: cell-based, human; conditions: then 40° C., day 28
From the text: FIGS. 12A and 12B illustrate the results of an electrophysiology experiment (multi-electrode array using Maestro Pro, Axion Biosystems) showing that iPSC-derived nociceptor-like cells were sensitized in response to treatment with oxaliplatin and prostaglandin E2 (PGE2). Oxaliplatin is a widely used chemotherapeutic drug that can damage sensory neurons of the peripheral nervous system and lead to peripheral neuropathy. PGE2 is used to model inflammatory pain. At day 28 of the procedure described in Example 1, the iPSC-derived nociceptor-like cells were recorded at 37° C. for 10 minutes for baseline recording, and then pre-treated with 0.1% DMSO, 50 μM Oxaliplatin or 1 μM PGE2 for 15 minutes at 37° C. The temperature was then increased to 40° C. to stimulate the cells, and recording was performed for another 10 minutes.

[2] = test system: iPSC-derived nociceptor-like cells; assay: Multi-electrode array: stimulation of nociceptor-like cells by specific ligands; type: cell-based, human
Method: Functional analysis of nociceptors derived from iPSCs according to the procedure described in Example 1 was performed. Multi-electrode arrays were used for the electrophysiology characterization experiments.

[3] = test system: cellular target; conditions: cited from earlier work; for pIC50: as described in Sidrauski et al.
[4] = biological target: T1, purinergic receptor P2RX3 (Homo sapiens, UniProt P56373); assay: Multi-electrode array: α,β-me-ATP stimulation and P2RX3 antagonist block in nociceptor-like cells; type: cell-based; conditions: 10 μM, day 28, multi-electrode array
T1 construct: iPSC-derived nociceptor-like cells were stimulated by application of 10 μM α,β-me-ATP, which is a known agonist for P2RX3 purinergic receptors; endogenous in cells; host or cells: iPSC-derived nociceptor-like cells, day 28 of differentiation
T1 sequence (P56373 1-397): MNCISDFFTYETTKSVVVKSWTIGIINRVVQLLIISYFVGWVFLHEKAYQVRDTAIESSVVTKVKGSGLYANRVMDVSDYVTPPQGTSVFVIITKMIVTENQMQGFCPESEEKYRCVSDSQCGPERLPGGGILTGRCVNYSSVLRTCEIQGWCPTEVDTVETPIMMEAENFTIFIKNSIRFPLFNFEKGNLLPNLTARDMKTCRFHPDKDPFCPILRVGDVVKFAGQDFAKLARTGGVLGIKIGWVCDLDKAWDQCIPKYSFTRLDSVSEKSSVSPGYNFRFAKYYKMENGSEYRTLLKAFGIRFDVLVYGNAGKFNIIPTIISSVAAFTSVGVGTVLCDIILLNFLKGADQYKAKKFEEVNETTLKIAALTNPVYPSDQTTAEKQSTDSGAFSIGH
Method: At day 28 of the procedure described in Example 1, the iPSC-derived nociceptor-like cells were pre-treated with 0.1% DMSO or 10 μM of each known antagonist of purinergic receptor P2RX3 for 30 minutes at 37° C. The cells were then stimulated by 10 μM α,β-me-ATP, and recordings were performed using multi-electrode.

## CCCCC[C@H](O)/C=C/[C@H]1[C@H](O)CC(=O)[C@@H]1C/C=C\CCCC(=O)O [PGE2, prostaglandin E2]
[1]; 1 μM pre-treatment 15 minutes at 37° C.
  sensitization of nociceptor-like cells: sensitized

## COc1cc(CNC(=O)CCCC/C=C/C(C)C)ccc1O [capsaicin]
[2]; 5 μM
  response: frequency of firing action potentials: increasing the frequency of firing action potentials; also recorded: stimulated

## O=C(COc1ccc(Cl)cc1)NC1CCC(NC(=O)COc2ccc(Cl)cc2)CC1 (stereo not drawn) [cis-ISRIB]
[3]
  pIC50: 6.22

## C=CCN=C=S [mustard oil, allyl isothiocyanate]
[2]; 100 μM
  response: frequency of firing action potentials: increasing the frequency of firing action potentials; also recorded: stimulated

## O=C1[O][Pt]2([NH][C@@H]3CCCC[C@H]3[NH]2)[O]C1=O [oxaliplatin]
[1]; 50 μM pre-treatment 15 minutes at 37° C.
  sensitization of nociceptor-like cells: sensitized

## O=C(COc1ccc(Cl)cc1)N[C@H]1CC[C@H](NC(=O)COc2ccc(Cl)cc2)CC1 [trans-ISRIB, N,N′-((1r,4r)-cyclohexane-1,4-diyl)bis(2-(4-chlorophenoxy)acetamide)]
[3]
  pIC50: 8.30
[3]; trans-ISRIB vs cis-ISRIB
  fold more potent than cis-ISRIB: 100 fold

## Nc1ncnc2c1ncn2[C@@H]1O[C@H](COP(=O)(O)CP(=O)(O)OP(=O)(O)O)[C@@H](O)[C@H]1O [α,β-me-ATP]
[4]
  stimulation of nociceptor-like cells: stimulated
[2]; 10 μM
  response: frequency of firing action potentials: increasing the frequency of firing action potentials; also recorded: stimulated
